Read-outs that look alike come from different tables or passages of the source.
Experiments:
hPDE3B = assay: In vitro assay PDE3 (SPA, 3H-cAMP); assay type: biochemical, human; set-up: hPDE3B Emax: unit not given here; conditions: for hPDE3B pIC50: 0.4 μM cAMP substrate
hPDE10A2 = hPDE10A2 (Homo sapiens, UniProt Q9Y233); assay: biochemical; conditions: for IC50: 60 nM cAMP substrate, read-out: hPDE10A2 pIC50 (converted); for Emax: read-out: hPDE10A2 Emax
Experimental: Rat recombinant PDE10A (rPDE10A2) was expressed in Sf9 cells using a recombinant rPDE10A baculovirus construct. Cells were harvested after 48 h of infection and the rPDE10A protein was purified by metal chelate chromatography on Ni-sepharose 6FF. Tested compounds were dissolved and diluted in 100% DMSO to a concentration 100 fold of the final concentration in the assay. Human recombinant PDE10A […] was expressed in Sf9 cells using a recombinant hPDE10A baculovirus that was made and amplified in house. Cells were harvested after 72 h of infection and the hPDE10A protein was purified by metal chelate chromatography on Ni-sepharose. Compound dilutions (0.4 μl) were added in 384 well plates to 20 μl of incubation buffer (50 mM Tris pH 7.8, 8.3 mM MgCl2, 1.7 mM EGTA). […] of rPDE10A or hPDE10A enzyme in incubation buffer was added and the reaction was started by addition of 10 μl substrate to a final concentration of 60 nM cAMP and 0.008 μCi ^3H-cAMP. The reaction was incubated for 60 minutes at room temperature. […] After sedimentation of the beads during 30 minutes the radioactivity was measured in a Perkin Elmer Topcount scintillation counter and results were expressed as cpm. For blanc values the enzyme was omitted from the reaction and replaced by incubation buffer. Control values were obtained by addition of a final concentration of 1% DMSO instead of compound.

hPDE2A = target: T1, hPDE2A (Homo sapiens, UniProt O00408); assay: In vitro assay PDE2A (SPA, 3H-cGMP); assay type: biochemical; conditions: for Emax: read-out: hPDE2A Emax
T1 construct: made in house; host or cells: Sf9 insect cells (baculovirus)
T1 sequence (O00408 whole entry): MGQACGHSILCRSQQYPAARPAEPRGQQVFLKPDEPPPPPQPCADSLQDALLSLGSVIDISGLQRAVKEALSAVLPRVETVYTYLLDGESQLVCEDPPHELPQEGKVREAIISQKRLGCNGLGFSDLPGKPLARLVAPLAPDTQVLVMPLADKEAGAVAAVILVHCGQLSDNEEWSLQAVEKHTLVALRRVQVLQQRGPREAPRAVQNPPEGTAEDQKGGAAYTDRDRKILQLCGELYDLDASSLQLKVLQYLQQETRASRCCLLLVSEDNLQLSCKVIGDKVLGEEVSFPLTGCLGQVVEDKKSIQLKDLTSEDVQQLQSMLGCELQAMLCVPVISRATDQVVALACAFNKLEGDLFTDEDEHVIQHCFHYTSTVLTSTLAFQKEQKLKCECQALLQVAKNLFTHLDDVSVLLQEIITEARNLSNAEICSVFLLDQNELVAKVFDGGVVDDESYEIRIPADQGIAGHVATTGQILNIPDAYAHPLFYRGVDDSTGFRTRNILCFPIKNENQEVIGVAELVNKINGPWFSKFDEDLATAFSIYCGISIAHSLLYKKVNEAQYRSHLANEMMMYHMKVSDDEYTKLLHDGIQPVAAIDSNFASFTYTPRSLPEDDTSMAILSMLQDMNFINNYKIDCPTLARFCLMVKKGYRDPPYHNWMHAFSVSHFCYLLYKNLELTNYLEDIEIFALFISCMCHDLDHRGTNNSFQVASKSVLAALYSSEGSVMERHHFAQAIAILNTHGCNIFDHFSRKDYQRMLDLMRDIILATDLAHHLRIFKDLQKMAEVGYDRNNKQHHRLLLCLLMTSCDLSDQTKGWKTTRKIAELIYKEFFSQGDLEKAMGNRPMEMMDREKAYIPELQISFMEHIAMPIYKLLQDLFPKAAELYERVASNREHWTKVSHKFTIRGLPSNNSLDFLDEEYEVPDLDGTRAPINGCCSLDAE
Experimental: Human recombinant PDE2A (hPDE2A) was expressed in Sf9 cells using a recombinant rPDE10A baculovirus construct. Cells were harvested after 48 h of infection and the hPDE2A protein was purified by metal chelate chromatography on Ni-sepharose 6FF. Tested compounds were dissolved and diluted in 100% DMSO to a concentration 100 fold of the final concentration in the assay. Compound dilutions (0.4 μl) were added in 384 well plates to 20 μl of incubation buffer (50 mM Tris pH 7.8, 8.3 mM MgCl2, 1.7 mM EGTA). 10 μl of hPDE2A enzyme in incubation buffer was added and the reaction was started by addition of 10 μl substrate to a final concentration of 10 μM cGMP and 0.01 μCi ^3H-cGMP. The reaction was incubated for 45 minutes at room temperature. […] After sedimentation of the beads during 30 minutes the radioactivity was measured in a Perkin Elmer Topcount scintillation counter and results were expressed as cpm. For blanc values the enzyme was omitted from the reaction and replaced by incubation buffer. Control values were obtained by addition of a final concentration of 1% DMSO instead of compound.

PDE2A = target: T2, PDE2A (Rattus norvegicus, UniProt Q01062); assay: PDE2 occupancy by ex-vivo autoradiography with [3H]B-17a; assay type: in vivo; conditions: for receptor occupancy at 10 mg/kg / ED50: rat; for ED50: read-out: PDE occupancy ED50, route PO (oral), male Wistar rats, dose producing 50% occupancy
T2 construct: from tissue; host or cells: rat brain striatal sections (ex vivo)
T2 sequence (Q01062 1-928): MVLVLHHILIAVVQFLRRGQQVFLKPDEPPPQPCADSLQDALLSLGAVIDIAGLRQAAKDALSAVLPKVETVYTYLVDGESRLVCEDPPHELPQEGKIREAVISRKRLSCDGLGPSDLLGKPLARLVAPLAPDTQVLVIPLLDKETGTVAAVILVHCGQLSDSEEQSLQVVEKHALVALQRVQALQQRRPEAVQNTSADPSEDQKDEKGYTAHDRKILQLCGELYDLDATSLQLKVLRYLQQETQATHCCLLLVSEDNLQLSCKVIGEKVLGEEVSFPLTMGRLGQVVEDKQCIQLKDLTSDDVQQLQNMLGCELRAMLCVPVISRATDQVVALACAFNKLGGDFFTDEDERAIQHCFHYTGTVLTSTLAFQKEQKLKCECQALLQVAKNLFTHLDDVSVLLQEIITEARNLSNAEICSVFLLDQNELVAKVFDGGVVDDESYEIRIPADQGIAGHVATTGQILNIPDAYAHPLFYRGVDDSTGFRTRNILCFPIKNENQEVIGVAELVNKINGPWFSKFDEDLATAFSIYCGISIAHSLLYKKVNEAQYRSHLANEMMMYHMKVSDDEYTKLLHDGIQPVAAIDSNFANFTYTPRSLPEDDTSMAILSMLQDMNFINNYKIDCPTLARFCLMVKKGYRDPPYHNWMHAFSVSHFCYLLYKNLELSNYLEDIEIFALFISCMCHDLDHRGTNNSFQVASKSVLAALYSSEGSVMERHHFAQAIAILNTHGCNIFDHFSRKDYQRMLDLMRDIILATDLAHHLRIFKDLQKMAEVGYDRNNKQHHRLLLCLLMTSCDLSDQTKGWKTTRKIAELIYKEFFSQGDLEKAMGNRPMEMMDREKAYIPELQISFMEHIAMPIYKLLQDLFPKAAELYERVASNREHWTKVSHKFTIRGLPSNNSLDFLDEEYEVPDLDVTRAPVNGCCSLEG
Experimental: PDE2 Occupancy by Test Compounds Methods
Brains were immediately removed from the skull and rapidly frozen in dry-ice cooled 2-methylbutane (−40° C.).
After thawing, sections were dried under a cold stream of air and incubated for one minute with 30 nM [^3H]B-17a in Tris-HCl (50 mM, pH7.4) containing 0.3% BSA. Brain sections from drug-treated and vehicle-treated animals were incubated in parallel. […] After incubation, the excess of [^3H]B-17a was washed off in ice-cold buffer 2 times 10 minutes, followed by a quick dip in distilled water. The sections were then dried under a stream of cold air.
Brain sections were loaded in a β-imager (Biospace, Paris) for 4 h and radioactivity emerging from delineated brain area was quantified using the Beta vision program (Biospace, Paris). Specific binding was determined as the difference between total binding in the striatum and non-specific binding in the cerebellum. Percentage receptor occupancy of the drug administered to the animal corresponded to 100% minus the percentage receptor labeled in the treated animal. For the determination of ED50-values, the percentage of receptor occupancy was plotted against dose and the sigmoidal log dose-effect curve of best fit was calculated by non-linear regression analysis, using the GraphPad Prism program.

[1] = route PO (oral), 10 mg/kg, male Wistar rats, striatum, percentage occupancy, read-out: PDE2 occupancy at 10 mg/kg
[2] = route SC (subcutaneous), 10 mg/kg, male Wistar rats, striatum, percentage occupancy, read-out: PDE2 occupancy at 10 mg/kg
[3] = po, read-out: PDE2 occupancy at 10 mg/kg, route PO (oral), 10 mg/kg, male Wistar rats, striatum, percentage occupancy
[4] = 10 μM cGMP substrate, read-out: hPDE2A pIC50 (converted)
[5] = sc, read-out: PDE2 occupancy at 10 mg/kg, route SC (subcutaneous), 10 mg/kg, male Wistar rats, striatum, percentage occupancy
[6] = po, read-out: PDE2 occupancy at 10 mg/kg

Chain of hPDE10A2 (Q9Y233 267-1055): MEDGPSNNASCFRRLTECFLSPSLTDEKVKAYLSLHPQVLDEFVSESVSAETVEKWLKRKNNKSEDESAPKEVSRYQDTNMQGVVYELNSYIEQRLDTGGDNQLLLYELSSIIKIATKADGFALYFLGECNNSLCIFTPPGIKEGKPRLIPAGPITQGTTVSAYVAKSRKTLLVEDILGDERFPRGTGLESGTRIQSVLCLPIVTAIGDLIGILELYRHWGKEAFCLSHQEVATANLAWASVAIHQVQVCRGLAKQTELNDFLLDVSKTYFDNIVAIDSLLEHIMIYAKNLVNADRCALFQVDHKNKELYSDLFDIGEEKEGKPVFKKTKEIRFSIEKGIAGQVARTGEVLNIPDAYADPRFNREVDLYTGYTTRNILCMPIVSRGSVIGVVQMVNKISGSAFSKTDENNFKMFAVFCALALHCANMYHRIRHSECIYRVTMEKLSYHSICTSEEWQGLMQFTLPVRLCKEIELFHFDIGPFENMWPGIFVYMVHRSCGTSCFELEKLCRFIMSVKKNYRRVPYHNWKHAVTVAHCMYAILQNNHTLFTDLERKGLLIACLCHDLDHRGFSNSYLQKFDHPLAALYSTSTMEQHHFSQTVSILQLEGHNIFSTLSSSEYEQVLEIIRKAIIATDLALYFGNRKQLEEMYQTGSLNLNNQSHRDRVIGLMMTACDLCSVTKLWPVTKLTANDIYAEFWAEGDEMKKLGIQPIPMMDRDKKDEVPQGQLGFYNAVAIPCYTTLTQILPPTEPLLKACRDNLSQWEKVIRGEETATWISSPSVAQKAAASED

Row | SMILES | hPDE3B Emax (hPDE3B) | hPDE3B pIC50 (hPDE3B) | IC50 (hPDE10A2) | Emax (hPDE10A2) | IC50 (hPDE2A) | Emax (hPDE2A) | melting point | receptor occupancy at 10 mg/kg (PDE2A; [1]) | receptor occupancy at 10 mg/kg (PDE2A; [2]) | receptor occupancy at 10 mg/kg (PDE2A; [3]) | IC50 (hPDE2A; [4]) | receptor occupancy at 10 mg/kg (PDE2A; [5]) | ED50 (PDE2A; po) | receptor occupancy at 10 mg/kg (PDE2A; [6]) | PDE2 occupancy at 10 mg/kg (PDE2A; route PO (oral), 10 mg/kg, male Wistar rats, striatum, percentage occupancy)
1 | C[C@H]1CCN(c2nccc3occc23)C[C@@H]1c1cc(C(F)F)nc2ncnn12 [Compound 30] | 53 | 5.02 | > 10000 nM | 41% | 8510 nM | 9% | 184.03 °C | – | – | – | – | – | – | – | –
2 | Cc1cc(C(F)(F)F)cc(N2CC[C@@H](C)[C@H](c3cc(C(F)F)nc4ncnn34)C2)n1 [Compound 21] | 93 | 5.83 | 269 nM | 95% | 61.7 nM | 101% | 124.81 °C | 9% | – | – | – | – | – | – | –
3 | C[C@@H]1CCN(c2cc(I)ccn2)C[C@H]1c1cc(C(F)F)nc2ncnn12 [Compound 16] | 95 | 6.19 | 224 nM | 99% | 18.2 nM | 100% | – | – | -14% | – | – | – | – | – | –
4 | C[C@@H]1CCN(c2nccc3cccc(F)c23)C[C@H]1c1cc(C(F)F)nc2ncnn12 [Compound 20] | 81 | 5.41 | 269 nM | 97% | 37.2 nM | 100% | 179.73 °C | – | – | 18% | – | – | – | – | –
5 | C[C@@H]1CCN(c2nccc3ccc(O)cc23)C[C@H]1c1cc(C(F)F)nc2ncnn12 [Compound 18] | 65 | 5.14 | 331 nM | 97% | – | 101% | – | – | – | – | 25.1 nM | -6% | – | – | –
6 | C[C@@H]1CCN(c2cc(C#N)c3cc(Cl)ccc3n2)C[C@H]1c1cc(C(F)F)nc2ncnn12 [Compound 37] | 70 | 5.17 | 363 nM | 96% | – | 102% | 235.11 °C | – | – | – | 129 nM | – | – | – | –
7 | Cc1ccc(C#N)c(N2CC[C@@H](C)[C@H](c3cc(C(F)F)nc4ncnn34)C2)n1 [Compound 17] | 66 | 5.15 | 102 nM | 97% | 19.5 nM | 100% | – | -18% | – | – | – | – | – | – | –
8 | C[C@@H]1CCN(c2ncc(Cl)c3ccccc23)C[C@H]1c1cc(C(F)F)nc2ncnn12 [Compound 6] | 67 | 5.21 | 417 nM | 101% | 8.91 nM | 99% | – | – | – | 3% | – | – | – | – | –
9 | C[C@H]1CCN(c2nccc3ccc(Br)cc23)C[C@@H]1c1cc(C(F)F)nc2ncnn12 [Compound 29] | 99 | 5.85 | 2510 nM | 84% | 2950 nM | 8% | 134.49 °C | – | – | – | – | – | – | – | –
10 | Cc1cc([C@@H]2CN(c3nccc4ccc(Br)cc34)CC[C@H]2C)n2ncnc2n1 [Compound 2] | 89 | 5.45 | 74.1 nM | 102% | 1.07 nM | 100% | – | – | – | 96% | – | – | 2.6 mg/kg | – | –
11 | Cc1cccc2ccnc(N3CC[C@@H](C)C(c4cc(C(F)F)nc5ncnn45)C3)c12 (some centres unmarked) [Compound 41] | 65 | 5.14 | 4680 nM | 76% | 309 nM | 99% | – | – | -8% | – | – | – | – | – | –
12 | C[C@@H]1CCN(c2ccccn2)C[C@H]1c1cc(C(F)F)nc2ncnn12.Cl [Compound 32] | 38 | <5 | 1660 nM | 87% | 170 nM | 86% | – | – | – | – | – | – | – | 18% | –
13 | C[C@@H]1CCN(c2nccc3[nH]ccc23)C[C@H]1c1cc(C(F)F)nc2ncnn12 [Compound 9] | 60 | 5.13 | 708 nM | 92% | 12.6 nM | 101% | – | – | – | – | – | 36% | – | – | –
14 | C[C@@H]1CCN(c2cc(C#N)ccn2)C[C@H]1c1cc(C(F)F)nc2ncnn12 [Compound 22] | 82 | 5.5 | 1150 nM | 90% | 67.6 nM | 100% | – | 0% | – | – | – | – | – | – | –
15 | C[C@@H]1CCN(c2ccc(C#N)cn2)C[C@H]1c1cc(C(F)F)nc2ncnn12 [Compound 35] | 31 | <5 | 1380 nM | 85% | 162 nM | 99% | – | – | – | – | – | – | – | 0% | –
16 | Cc1cc([C@@H]2CN(c3nccc4ccc(Cl)cc34)CC[C@H]2C)n2ncnc2n1 [Compound 3] | 88 | 5.49 | 83.2 nM | 100% | 3.02 nM | 100% | – | – | – | 90% | – | – | 2.12 mg/kg | – | 89
17 | COc1cccc2c(N3CC[C@@H](C)[C@H](c4cc(C(F)F)nc5ncnn45)C3)nccc12.Cl [Compound 10] | 84 | 5.53 | 490 nM | 100% | 12.9 nM | 99% | – | – | – | – | – | 53% | 20 mg/kg | – | –

Reference: patent US11053248B2, “[1,2,4]triazolo[1,5-a]pyrimidine compounds as PDE2 inhibitors” (Janssen Pharmaceutica NV, priority 2016, dated 2021)
